The structures appear in SMILES notation.

In patent US8551981B2, “Furo[3,2-d]pyrimidine compounds” (AbbVie Inc., priority 2010, dated 2013) one finds inhibition in vivo data, which are given here for ten compounds.

The subject of this assay is Fcγ receptor signaling. Description: Reverse Passive Arthus model. Conditions: Rattus norvegicus, single dose 10 mg/kg. Format: in vivo. The procedure:
Acute in vivo measurement of Fcγ receptor signaling inhibition of the compounds is measured using the:
Reverse Passive Arthus Model
On day 0 OVA was made up at a concentration of 17 mg/mL, in PBS by rocking gently until a solution was formed. 2% Evans Blue solution (Sigma Aldrich, cat# E2129) was then added to double the volume for a final concentration of 8.5 mg/mL of OVA and 1% Evans Blue dye. Anti-OVA antibody (Abazyme), stock concentration 10 mg/mL, was thawed and a 4 mg/mL solution was made with PBS. Compounds were made up in 0.5% HPMC with 0.02% Tween 80, and vortexed for about 15 seconds followed by homogenization for a minimum of about 2 min at 28,000 RPM until there was a fine particulate suspension with no clumps of compound. Rats were weighed and dosed with compound at a pre-determined time based on compound Tmax determined in pharmacokinetic studies. Animals were then placed under general anesthesia with a 5% isoflourane and oxygen mixture and shaved. Using a 0.5 cc insulin syringe two sites were injected i.d., 1 site with 100 μL of 4.0 mg/mL of anti-OVA antibody, and 1 site with 100 μL of sterile PBS. Each injection site was circled with a permanent marker to mark the site. Immediately following i.d. injections, animals were injected with 200 μL of the OVA (10 mg/kg)/1% Evans Blue mixture, i.v., using a 0.5 cc insulin syringe. About 4 h post injection animals were euthanized, bled via cardiac puncture and blood was put into plasma separation tubes. Blood samples were stored on ice until centrifugation (within about 2 h of collection). Each injection site was removed with a disposable biopsy punch (Acuderm Acu-Punch Disposable 12 mm), cut into four pieces and placed in a pre-labeled 2 mL eppendorf tube. One mL of DMF (99%) was added to each biopsy tube and they were placed in a heat block at about 50° C. for about 24 h. After incubation, 100 μL of each sample was transferred to a 96 well flat bottom plate and read at 620 nm on a plate reader using the Softmax software. Background was removed by subtracting the OD from the PBS injected site from the OD of the anti-OVA injected site for each individual animal. Plasma samples were spun down in a microcentrifuge (Eppendorf 5415R) for about 5 min at 16.1 rcf. 200 μL of plasma was placed in a 1.7 mL eppendorf tube for drug level measurements and tubes were stored at about −80° C. until evaluation.
With `CC1(C)C(=O)Nc2cc(Nc3nc(NCC(F)F)c4occc4n3)ccc21` [Example #16, 6-(4-(2,2-Difluoroethylamino)furo[3,2-d]pyrimidin-2-ylamino)-3,3-dimethylindolin-2-one], the inhibition in vivo at 10 mg/kg was 63%.

In the case of `Cc1cc(Nc2nc(NC3CC3)c3occc3n2)cc2[nH]ncc12` [Example #AC.1, N^4-cyclopropyl-N^2-(4-methyl-1H-indazol-6-yl)furo[3,2-d]pyrimidine-2,4-diamine], the inhibition in vivo at 10 mg/kg stood at 43%.

For the compound `Cc1n[nH]c2cc(Nc3nc(N4CCC(O)(CN)CC4)c4occc4n3)ccc12` [Example #AM.1, 4-(Aminomethyl)-1-(2-(3-methyl-1H-indazol-6-ylamino)furo[3,2-d]pyrimidin-yl)piperidin-4-ol], the inhibition in vivo at 10 mg/kg was 3%.

As for `CC1(C)Oc2ccc(Nc3nc(N4CCC(O)(CN)CC4)c4occc4n3)cc2NC1=O` [Example #AM.1.1], the inhibition in vivo at 10 mg/kg came out at 12%.

Turning to `CC1(C)Oc2ccc(Nc3nc(N4CC[C@@H](CN)[C@H](O)C4)c4occc4n3)cc2NC1=O` [Example #AM.1.2], the inhibition in vivo at 10 mg/kg was -16%.

As for `CC1(C)C(=O)Nc2cc(Nc3nc(N4CCC(O)(CN)CC4)c4occc4n3)ccc21` [Example #AM.1.3], the inhibition in vivo at 10 mg/kg turned out to be 15%.

Regarding `CN(C)C(=O)c1n[nH]c2cc(Nc3nc(NC4CC4)c4occc4n3)ccc12` [J.1, 6-(4-(Cyclopropylamino)furo[3,2-d]pyrimidin-2-ylamino)-N,N-dimethyl-1H-indazole-3-carboxamide], the inhibition in vivo at 10 mg/kg is -2%.

Consider `c1cc(-c2n[nH]c3cc(Nc4nc(NC5CC5)c5occc5n4)ccc23)ccn1` [J.1.7], for which the inhibition in vivo at 10 mg/kg was found to be 12%.

On to `N#Cc1n[nH]c2cc(Nc3nc(NC4CC4)c4occc4n3)ccc12` [J.1.8], for which the inhibition in vivo at 10 mg/kg came to 9%.

Turning to `Cc1n[nH]c2cc(Nc3nc(N4CCC5(CC4)CNCCO5)c4occc4n3)ccc12` [Q.1.4], the inhibition in vivo at 10 mg/kg came out at 33%.
